“Also recorded” adds a separate entry of the source.
Assays:
[1] = target: Taxol-stabilized microtubules; assay: MT spin-down (co-sedimentation) assay with PHDP5 (1 mM) added as competitor to MT and dynamin 1
[2] = test system: calyx of Held presynaptic terminals; assay: Simultaneous pre- and postsynaptic whole-cell recording of EPSCs at the calyx of Held in brainstem slices; assay type: cell-based, mouse; settings: for EPSC amplitude 30 min after infusion (normalized to baseline) / EPSC amplitude remaining 30 min after infusion (normalized to baseline): 20 μM loaded in presynaptic terminal; for EPSC amplitude 30 min after infusion (normalized to baseline): EPSCs evoked at 0.1 Hz; for EPSC amplitude remaining 30 min after infusion (normalized to baseline): EPSCs evoked at 1 Hz
[3] = test system: calyx of Held presynaptic terminals; assay: Membrane capacitance measurements (SV exo-endocytosis) at calyx of Held presynaptic terminals; assay type: cell-based, mouse; settings: 20 μM; for Presynaptic Ca2+ current charge (QCa): 20-30 min after patch membrane rupture; for Exocytic capacitance magnitude: vs controls
[4] = test system: dynamin1; assay: Immunofluorescence quantification of bound-form dynamin in calyceal terminals; assay type: cell-based, mouse
Experimental: (§1) The following primary antibodies were used: anti-β3-tubulin (Synaptic System, #302304), anti-human Tau (BioLegend, #806501), anti-dynamin (Invitrogen, PA1-660). Secondary antibodies were goat IgG conjugated with Alexa Fluor 488, 568, or 647 (Thermo Fisher Scientific). Acute brainstem slices (175 μm in thickness, see below) were fixed with 4% paraformaldehyde in PBS for 30 min at 37° C. and overnight at 4° C. On the following day, slices were rinsed three times in PBS, permeabilized in PBS containing 0.5% Triton X-100 (Tx-100; Nacalai Tesque) for 30 min and blocked in PBS containing 3% bovine serum albumin (BSA; Sigma-Aldrich) and 0.05% Tx-100 for 45 min. Slices were incubated overnight at 4° C. with primary antibody diluted in PBS 0.05% Tx-100, 0.3% BSA. On the next day, slices were rinsed three times with PBS containing 0.05% Tx-100 for 10 min and incubated with corresponding secondary antibody diluted in PBS 0.05% Tx-100, 0.3% BSA for 1 h at room temperature (RT). […] For quantifying fluorescence intensity levels, the region of interest was delimited around calyceal terminals, and background fluorescence was subtracted using ImageJ software.
(§2) The monomeric GTPases dynamin 1 and 3 play critical roles in the endocytic fission of SVs (50-52). […] To test this hypothesis, we performed immunofluorescence microscopy and image analysis to quantify MTs and dynamin. […]

[5] = test system: β3-tubulin; assay: Immunofluorescence quantification of MTs in calyceal terminals; assay type: cell-based, mouse
Experimental: as §1, §2

[6] = target: porcine tubulin (Sus scrofa, UniProt P02550+P02554); assay: Tubulin polymerization assay (MT assembly); assay type: biochemical; settings: 10 μM
[7] = target: microtubules in mouse calyceal terminals (endogenous, assembled after h-tau loading), Q9ERD7
[8] = 30 min after patch membrane rupture
[9] = 30 min after patch membrane rupture, listed as h-tau

Chain of microtubules in mouse calyceal terminals (endogenous, assembled after h-tau loading), Q9ERD7 (Q9ERD7 whole entry, looked up): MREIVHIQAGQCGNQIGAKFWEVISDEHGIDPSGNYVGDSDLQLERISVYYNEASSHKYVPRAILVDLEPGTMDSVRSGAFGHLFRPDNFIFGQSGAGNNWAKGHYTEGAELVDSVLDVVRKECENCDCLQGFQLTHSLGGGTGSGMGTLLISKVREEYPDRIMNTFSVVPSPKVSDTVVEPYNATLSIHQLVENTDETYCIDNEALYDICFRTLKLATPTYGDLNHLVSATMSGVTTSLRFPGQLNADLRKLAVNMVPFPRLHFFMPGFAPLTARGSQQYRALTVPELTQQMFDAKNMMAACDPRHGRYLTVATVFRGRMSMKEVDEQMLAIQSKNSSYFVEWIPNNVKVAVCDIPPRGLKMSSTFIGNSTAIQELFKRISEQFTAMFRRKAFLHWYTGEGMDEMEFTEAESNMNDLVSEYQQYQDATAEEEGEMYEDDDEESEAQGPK
Chain of porcine tubulin (P02550 whole entry): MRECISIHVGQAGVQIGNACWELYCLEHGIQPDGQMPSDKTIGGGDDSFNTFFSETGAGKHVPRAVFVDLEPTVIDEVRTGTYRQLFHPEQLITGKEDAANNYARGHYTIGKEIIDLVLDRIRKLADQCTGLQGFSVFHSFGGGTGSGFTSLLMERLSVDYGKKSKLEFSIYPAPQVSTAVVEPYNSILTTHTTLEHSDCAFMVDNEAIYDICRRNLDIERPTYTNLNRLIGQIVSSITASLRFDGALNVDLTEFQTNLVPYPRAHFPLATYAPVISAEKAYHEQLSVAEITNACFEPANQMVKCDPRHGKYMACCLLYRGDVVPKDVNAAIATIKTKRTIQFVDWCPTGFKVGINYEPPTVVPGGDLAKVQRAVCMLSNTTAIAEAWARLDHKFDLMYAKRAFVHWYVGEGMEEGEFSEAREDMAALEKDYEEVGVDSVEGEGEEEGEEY
Chain of porcine tubulin (P02554 whole entry): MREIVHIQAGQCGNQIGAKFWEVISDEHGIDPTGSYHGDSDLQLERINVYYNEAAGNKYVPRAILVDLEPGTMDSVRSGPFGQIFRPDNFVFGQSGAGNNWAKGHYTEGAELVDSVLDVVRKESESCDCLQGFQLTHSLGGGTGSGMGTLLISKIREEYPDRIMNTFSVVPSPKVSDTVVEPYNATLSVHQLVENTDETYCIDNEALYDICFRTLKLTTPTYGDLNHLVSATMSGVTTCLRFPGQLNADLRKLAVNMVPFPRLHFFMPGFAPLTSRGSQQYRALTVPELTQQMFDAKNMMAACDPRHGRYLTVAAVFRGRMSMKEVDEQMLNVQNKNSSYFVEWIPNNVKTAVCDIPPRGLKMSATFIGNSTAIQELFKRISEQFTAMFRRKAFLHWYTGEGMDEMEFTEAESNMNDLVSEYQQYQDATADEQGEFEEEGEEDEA

## His-tagged human dynamin 1 (from UniProt Q05193 1-864)
[1]
  % of dynamin 1 in precipitates (ppts) relative to total amount: 6.3%

## WT h-tau: wild-type recombinant human tau of ON4R isoform expressed in E. coli
[2]; 20 μM intra-terminal loading
  Miniature EPSC amplitude and frequency: neither amplitude nor frequency was affected
[2]
  EPSC amplitude 30 min after infusion (normalized to baseline): 85±12%
  EPSC amplitude remaining 30 min after infusion (normalized to baseline): 65±5%
[2]; listed as h-tau
  EPSC amplitude 30 min after infusion (normalized to baseline): 85%+12
  EPSC amplitude remaining 30 min after infusion (normalized to baseline): 23±9%
[3]
  Presynaptic Ca2+ current charge (QCa): not different from controls; also recorded: remained unchanged
[3]; listed as h-tau
  Presynaptic Ca2+ current charge (QCa): without a change
[3]; 20 min after patch membrane rupture
  Exocytic capacitance magnitude: not different from controls; also recorded: remained similar to controls
[3]; 20 min after patch membrane rupture, vs non-loading controls
  Endocytic rate (endocytic capacitance change): significant slowing; also recorded: significantly prolonged
[3]; [8]
  Endocytic rate (endocytic capacitance change): further prolonged
  Exocytic capacitance magnitude: significantly less than controls
[3]; [9]
  Exocytic capacitance magnitude: significant reduction
  Endocytic rate (endocytic capacitance change): further slowed
[4]; 20 μM whole-cell infusion
  Increase in dynamin signal vs terminals without loading: 2.6 fold
[4]; WT h-tau loading
  dynamin1 immunofluorescence intensity vs control terminals: significantly increased
[5]; 20 μM whole-cell infusion
  Increase in MT (β3-tubulin) signals vs terminals without loading: 2.1 fold
[5]; WT h-tau loading
  β3-tubulin immunofluorescence intensity vs control terminals: significantly increased
[6]
  MT assembly in in vitro tubulin polymerization assay: MT assembly

B1: dynamin 1 in mouse calyx of Held presynaptic terminals (endogenous) (protein)
chain: MGNRGMEDLIPLVNRLQDAFSAIGQNADLDLPQIAVVGGQSAGKSSVLENFVGRDFLPRGSGIVTRRPLVLQLVNSTTEYAEFLHCKGKKFTDFEEVRLEIEAETDRVTGTNKGISPVPINLRVYSPHVLNLTLVDLPGMTKVPVGDQPPDIEFQIRDMLMQFVTKENCLILAVSPANSDLANSDALKIAKEVDPQGQRTIGVITKLDLMDEGTDARDVLENKLLPLRRGYIGVVNRSQKDIDGKKDITAALAAERKFFLSHPSYRHLADRMGTPYLQKVLNQQLTNHIRDTLPGLRNKLQSQLLSIEKEVDEYKNFRPDDPARKTKALLQMVQQFAVDFEKRIEGSGDQIDTYELSGGARINRIFHERFPFELVKMEFDEKELRREISYAIKNIHGIRTGLFTPDLAFEATVKKQVQKLKEPSIKCVDMVVSELTSTIRKCSEKLQQYPRLREEMERIVTTHIREREGRTKEQVMLLIDIELAYMNTNHEDFIGFANAQQRSNQMNKKKTSGNQDEILVIRKGWLTINNIGIMKGGSKEYWFVLTAENLSWYKDDEEKEKKYMLSVDNLKLRDVEKGFMSSKHIFALFNTEQRNVYKDYRQLELACETQEEVDSWKASFLRAGVYPERVGDKEKASETEENGSDSFMHSMDPQLERQVETIRNLVDSYMAIVNKTVRDLMPKTIMHLMINNTKEFIFSELLANLYSCGDQNTLMEESAEQAQRRDEMLRMYHALKEALSIIGDINTTTVSTPMPPPVDDSWLQVQSVPAGRRSPTSSPTPQRRAPAVPPARPGSRGPAPGPPPAGSALGGAPPVPSRPGASPDPFGPPPQVPSRPNRAPPGVPRITISDP
[7]
  dynamin immunofluorescence in permeabilised h-tau-loaded terminals against terminals without h-tau loading: a 2.6-fold increase in dynamin signal
